# Data as given in US9340493B2, “Hydroxamic acid derivatives useful as antibacterial agents” (Pfizer Inc., priority 2008, dated 2016).
# Experiments:
# [1] = biological target: T1, Pseudomonas aeruginosa LpxC enzyme (Pseudomonas aeruginosa, UniProt P47205); experiment: IC50 assay, LpxC enzyme from P. aeruginosa; assay type: biochemical; conditions: 0.5 nM enzyme, 25° C., pH 8.0, 20 min; ** = average of 2-8 assays
# T1 construct: made in house; host or cells: E. coli
# T1 sequence (P47205 1-303): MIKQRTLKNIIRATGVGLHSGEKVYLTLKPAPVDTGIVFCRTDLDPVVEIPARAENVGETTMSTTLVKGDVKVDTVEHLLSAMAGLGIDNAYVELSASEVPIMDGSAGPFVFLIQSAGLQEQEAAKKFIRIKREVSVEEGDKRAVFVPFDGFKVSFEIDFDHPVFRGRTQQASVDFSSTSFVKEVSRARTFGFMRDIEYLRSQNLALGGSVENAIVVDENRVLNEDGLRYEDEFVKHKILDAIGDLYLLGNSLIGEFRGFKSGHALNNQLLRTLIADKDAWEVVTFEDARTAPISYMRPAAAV
# In short: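 P. aeruginosa LpxC (0.5 nM, expressed in E. coli) reacted with 0.5 uM ³H-acetyl-labelled UDP-3-O-(R-3-hydroxydecanoyl)-GlcNAc in 50 mM sodium phosphate pH 8.0 with 1 mg/ml BSA at 25 °C for 20 min. Charcoal stopped the reaction, and filtrate radioactivity was counted by scintillation after no-enzyme background subtraction.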
# [2] = test system: P. aeruginosa UI-18; experiment: MIC determination, P. aeruginosa UI-18; assay type: cell-based; conditions: Pseudomonas aeruginosa, UI18; wild-type; * = arithmetic mean of 2-6 MIC determinations; read-out: MIC (ug/mL) P. aeruginosa UI-18
# In short: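 MIC by broth dilution following CLSI M7-A7 and M100-S18 guidelines, tested against wild-type P. aeruginosa UI-18.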
# [3] = test system: Acinetobacter baumanii/haemolyticus; experiment: MIC determination, A. baumanii/haemolyticus; assay type: cell-based; conditions: Acinetobacter baumannii; multidrug-resistant clinical isolate; * = arithmetic mean of 2-6 MIC determinations; read-out: MIC (ug/mL) A. baumanii/haemolyticus
# In short: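 MICs were determined by CLSI broth dilution (M7-A7, M100-S18) against a multidrug-resistant clinical isolate of Acinetobacter baumanii/haemolyticus.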
# [4] = test system: P. aeruginosa PAO280; experiment: MIC determination, P. aeruginosa PAO280; assay type: cell-based; conditions: Pseudomonas aeruginosa, PAO280, read-out: MIC (ug/mL) P. aeruginosa PAO280
# In short: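 Broth dilution MIC per CLSI M7-A7/M100-S18 guidelines. Strain PAO280 lacks efflux pumps MexAB-oprM, MexXY and MexZ.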
# [5] = test system: Klebsiella pneumoniae; experiment: MIC determination, K. pneumoniae; assay type: cell-based; conditions: ciprofloxacin-resistant, ESBL-expressing clinical isolate, * = arithmetic mean of 2-6 MIC determinations, read-out: MIC (ug/mL) K. pneumoniae
# In short: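 MIC determined by broth dilution per CLSI M7-A7 and M100-S18 guidelines. Strain: ciprofloxacin-resistant, ESBL-expressing clinical isolate of K. pneumoniae.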
# [6] = test system: Staphylococcus aureus ATCC 29213; experiment: MIC determination, S. aureus ATCC 29213; assay type: cell-based; conditions: ATCC29213, CLSI quality control reference strain, * = arithmetic mean of 2-6 MIC determinations, read-out: MIC (ug/mL) S. aureus ATCC 29213
# In short: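 MIC was measured by dilution susceptibility testing following CLSI guidelines (M7-A7; M100-S18). The test organism is the CLSI quality-control reference strain.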
# [7] = test system: Serratia marcescens; experiment: MIC determination, S. marcescens; assay type: cell-based; conditions: multidrug-resistant clinical isolate, * = arithmetic mean of 2-6 MIC determinations, read-out: MIC (ug/mL) S. marcescens
# Protocol: MIC determinations: The in vitro antibacterial activity of compounds described in the Examples was evaluated by minimum inhibitory concentration (MIC) testing according to Clinical and Laboratory Standards Institute (CLSI, formerly NCCLS) guidelines. See: Clinical and Laboratory Standards Institute. Methods for Dilution Antimicrobial Susceptibility Tests for Bacteria that Grow Aerobically; Approved Standard-Seventh Edition. CLSI document M7-A7 [ISBN 1-56238-587-9]. Clinical and Laboratory Standards Institute, 940 West Valley Road, Suite 1400, Wayne, Pa. 19087-1898 USA, 2006; also Clinical and Laboratory Standards Institute. Performance Standards for Antimicrobial Susceptibility Testing; Eighteenth Informational Supplement. CLSI document M100-S18 [ISBN1-56238-653-0]. Clinical and Laboratory Standards Institute.
# The following bacterial strains were used:
# Serratia marcescens: Multidrug-resistant clinical isolate.
# [8] = test system: Escherichia coli EC-1; experiment: MIC determination, E. coli EC-1; assay type: cell-based; conditions: EC1, EC-1: VOGEL, * = arithmetic mean of 2-6 MIC determinations, read-out: MIC (ug/mL) E. coli EC-1
# In short: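 Minimum inhibitory concentration against Escherichia coli EC-1 was determined in vitro by dilution susceptibility testing under CLSI M7-A7 and M100-S18 guidelines.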
# [9] = test system: Enterobacter aerogenes; experiment: MIC determination, E. aerogenes; assay type: cell-based; conditions: Klebsiella aerogenes; quinolone-resistant, ESBL-expressing clinical isolate; * = arithmetic mean of 2-6 MIC determinations; read-out: MIC (ug/mL) E. aerogenes
# In short: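 Clinical E. aerogenes isolate, quinolone-resistant and ESBL-expressing. MIC measured in vitro by dilution testing according to CLSI guidelines (M7-A7, M100-S18).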
compound,measurement,setting,value
"Cn1ccnc1[C@H](O)[C@](C)(OCc1ccc(-c2ccccc2)cc1)C(=O)NO [Example 10, (2S,3S)-2-(biphenyl-4-ylmethoxy)-N,3-dihydroxy-2-methyl-3-(1-methyl-1H-imidazol-2-yl)propanamide]",IC50,[1],0.00246 µM
same,MIC,[2],33 µg/mL
same,MIC,[3],64 µg/mL
same,MIC,[4],0.19 µg/mL
same,MIC,[5],48 µg/mL
same,MIC,[6],48 µg/mL
same,MIC,[7],64 µg/mL
same,MIC,[8],48 µg/mL
same,MIC,[9],> 64 µg/mL
"C[C@@](OCc1ccc(-c2ccccc2)cc1)(C(=O)NO)[C@@H](O)c1ccccc1 [Example 11, (2S,3S)-2-(biphenyl-4-ylmethoxy)-N,3-dihydroxy-2-methyl-3-phenylpropanamide]",IC50,[1],0.00509 µM
same,MIC,[2],> 64 µg/mL
same,MIC,[3],> 64 µg/mL
same,MIC,[4],8 µg/mL
same,MIC,[5],> 64 µg/mL
same,MIC,[6],32 µg/mL
same,MIC,[7],> 64 µg/mL
same,MIC,[8],> 64 µg/mL
same,MIC,[9],> 64 µg/mL
"C[C@@](OCc1ccc(-c2ccccc2)cc1)(C(=O)NO)[C@@H](O)c1cccnc1 [Example 12, (2S,3S)-2-(biphenyl-4-ylmethoxy)-N,3-dihydroxy-2-methyl-3-pyridin-3-ylpropanamide]",IC50,[1],0.00181 µM
same,MIC,[2],32 µg/mL
same,MIC,[3],> 64 µg/mL
same,MIC,[4],0.5 µg/mL
same,MIC,[5],> 64 µg/mL
same,MIC,[6],32 µg/mL
same,MIC,[7],> 64 µg/mL
same,MIC,[8],> 64 µg/mL
same,MIC,[9],> 64 µg/mL
"O=C(NO)C(CO)(OCc1ccc(-c2ccccc2)cc1)C(F)(F)F (stereo not shown) [Example 50, 2-(biphenyl-4-ylmethoxy)-3,3,3-trifluoro-N-hydroxy-2-(hydroxymethyl)propanamide]",IC50,[1],0.0147 µM
same,MIC,[2],48 µg/mL
same,MIC,[3],> 64 µg/mL
same,MIC,[4],1 µg/mL
same,MIC,[5],> 64 µg/mL
same,MIC,[6],> 64 µg/mL
same,MIC,[7],> 64 µg/mL
same,MIC,[8],> 64 µg/mL
same,MIC,[9],> 64 µg/mL
"CC(OCc1ccc(-c2ccccc2)cc1)C(=O)NO (stereo not shown) [Example 54, 2-(biphenyl-4-ylmethoxy)-N-hydroxypropanamide]",IC50,[1],0.406 µM
same,melting point,,120 to 123 °C
same,MIC,[2],> 64 µg/mL
same,MIC,[3],> 64 µg/mL
same,MIC,[4],32 µg/mL
same,MIC,[5],> 64 µg/mL
same,MIC,[6],> 64 µg/mL
same,MIC,[7],> 64 µg/mL
same,MIC,[8],> 64 µg/mL
same,MIC,[9],> 64 µg/mL
"COCC(CO)(OCc1ccc(-c2ccccc2)cc1)C(=O)NO (stereo not shown) [Example 56, 2-(biphenyl-4-ylmethoxy)-N,3-dihydroxy-2-(methoxymethyl)propanamide]",IC50,[1],0.0222 µM
same,MIC,[2],> 64 µg/mL
same,MIC,[3],> 64 µg/mL
same,MIC,[4],4 µg/mL
same,MIC,[5],> 64 µg/mL
same,MIC,[6],> 64 µg/mL
same,MIC,[7],> 64 µg/mL
same,MIC,[8],> 64 µg/mL
same,MIC,[9],> 64 µg/mL
"O=C(NO)C1(OCc2ccc(-c3ccccc3)cc2)CCOCC1 [Example 58, 4-(biphenyl-4-ylmethoxy)-N-hydroxytetrahydro-2H-pyran-4-carboxamide]",IC50,[1],0.04 µM
same,MIC,[2],> 64 µg/mL
same,MIC,[3],> 64 µg/mL
same,MIC,[4],4 µg/mL
same,MIC,[5],> 64 µg/mL
same,MIC,[6],> 64 µg/mL
same,MIC,[7],> 64 µg/mL
same,MIC,[8],> 64 µg/mL
same,MIC,[9],> 64 µg/mL
"O=C(NO)C(CO)(CO)OCc1ccc(-c2ccccc2)cc1 [Example 91, 2-(biphenyl-4-ylmethoxy)-N,3-dihydroxy-2-(hydroxymethyl)propanamide]",IC50,[1],0.0108 µM
same,MIC,[2],43 µg/mL
same,MIC,[3],> 64 µg/mL
same,MIC,[4],1.25 µg/mL
same,MIC,[5],> 64 µg/mL
same,MIC,[6],> 64 µg/mL
same,MIC,[7],> 64 µg/mL
same,MIC,[8],> 64 µg/mL
same,MIC,[9],> 64 µg/mL
O=C(NO)C(CO)(CCO)OCc1ccc(-c2ccccc2)cc1 (stereo not shown) [Example 92],IC50,[1],0.0134 µM
same,MIC,[2],> 64 µg/mL
same,MIC,[3],> 64 µg/mL
same,MIC,[4],2 µg/mL
same,MIC,[5],> 64 µg/mL
same,MIC,[6],> 64 µg/mL
same,MIC,[7],> 64 µg/mL
same,MIC,[8],> 64 µg/mL
same,MIC,[9],> 64 µg/mL
